# From patent US11319299B2, “Substituted carboxamides as inhibitors of WDR5 protein-protein binding” (PROPELLON THERAPEUTICS INC., priority 2016, dated 2022)
# Molecular target: WDR5 (Homo sapiens (Human), UniProt P61964)
# Assay: Surface Plasmon Resonance (SPR) assay, KD and residence time
# Assay type: binding
# Conditions: surface plasmon resonance (SPR) assay; read-out: WDR5 binding affinity (KD)
row,Structure (SMILES),Kd [nM]
1,"CC(C)Oc1ncc(-c2cc(NC(=O)c3c[nH]c(=O)cc3C(F)(F)F)c(N3CCN(C)C(C)C3)cc2F)cn1 (stereo in doubt) [Example 240, N-[4-fluoro-5-(2-propan-2-yloxypyrimidin-5-yl)-2-[(3R)-3,4-dimethylpiperazin-1-yl]phenyl]-6-oxo-4-(trifluoromethyl)-1H-pyridine-3-carboxamide]",2.23
2,"C[C@@H]1CN(c2cc(F)c(N3CCN(Cc4ccc(F)cc4)CC3)cc2NC(=O)c2c[nH]c(=O)cc2C(F)(F)F)C[C@H](C)N1C [Example 392, N-[4-fluoro-5-[4-[(4-fluorophenyl)methyl]piperazin-1-yl]-2-[(3R,5S)-3,4,5-trimethylpiperazin-1-yl]phenyl]-6-oxo-4-(trifluoromethyl)-1H-pyridine-3-carboxamide]",8.08
3,"C[C@@H]1CN(c2cc(F)c(-c3cc(Cl)c(O)c(C#N)c3)cc2NC(=O)c2c[nH]c(=O)cc2C(F)(F)F)C[C@H](C)N1C [Example 98, N-[5-(3-chloro-5-cyano-4-hydroxyphenyl)-4-fluoro-2-[(3R,5S)-3,4,5-trimethylpiperazin-1-yl]phenyl]-6-oxo-4-(trifluoromethyl)-1H-pyridine-3-carboxamide]",19.5
4,"CN(C)[C@@H]1CCN(c2cc(F)c(-c3ccc(OCC4CC4)nc3)cc2NC(=O)c2c[nH]c(=O)cc2C(F)(F)F)C1 [Example 238, N-[5-[6-(cyclopropylmethoxy)pyridin-3-yl]-4-fluoro-2-[(3R)-3-(dimethylamino)pyrrolidin-1-yl]phenyl]-6-oxo-4-(trifluoromethyl)-1H-pyridine-3-carboxamide]",5.11
5,"C[C@@H]1CN(c2cc(F)c(C3=CCCN(C(=O)N4CCCC4)C3)cc2NC(=O)c2c[nH]c(=O)cc2C(F)(F)F)C[C@H](C)N1C [Example 374, N-[4-fluoro-5-[1-(pyrrolidine-1-carbonyl)-3,6-dihydro-2H-pyridin-5-yl]-2-[(3R,5S)-3,4,5-trimethylpiperazin-1-yl]phenyl]-6-oxo-4-(trifluoromethyl)-1H-pyridine-3-carboxamide]",1.15
6,"Cc1ncc(CN2CC=C(c3cc(NC(=O)c4c[nH]c(=O)cc4C(F)(F)F)c(N4C[C@@H](C)N(C)[C@@H](C)C4)cc3F)CC2)o1 [Example 163, N-[4-fluoro-5-[1-[(2-methyl-1,3-oxazol-5-yl)methyl]-3,6-dihydro-2H-pyridin-4-yl]-2-[(3R,5S)-3,4,5-trimethylpiperazin-1-yl]phenyl]-6-oxo-4-(trifluoromethyl)-1H-pyridine-3-carboxamide]",4.05
7,"C[C@@H]1CN(c2cc(F)c(C3CCN(C(=O)CC(C)(C)C)CC3)cc2NC(=O)c2c[nH]c(=O)cc2C(F)(F)F)C[C@H](C)N1C [Example 256, N-[5-[1-(3,3-dimethylbutanoyl)piperidin-4-yl]-4-fluoro-2-[(3R,5S)-3,4,5-trimethylpiperazin-1-yl]phenyl]-6-oxo-4-(trifluoromethyl)-1H-pyridine-3-carboxamide]",11.8
8,"COc1cc(-c2cc(NC(=O)c3c[nH]c(=O)cc3C(F)(F)F)c(N3C[C@@H](C)N(C)[C@@H](C)C3)cc2F)cc(C)n1 [Example 135, N-[4-fluoro-5-(2-methoxy-6-methylpyridin-4-yl)-2-[(3R,5S)-3,4,5-trimethylpiperazin-1-yl]phenyl]-6-oxo-4-(trifluoromethyl)-1H-pyridine-3-carboxamide]",2.81

# Now from value to compound:
row,Kd [nM],Structure (SMILES)
1,40.9,"COc1cc(C(=O)Nc2cc(-c3cnc(N4CCOCC4)nc3)c(F)cc2N2C[C@@H](C)N(C)[C@@H](C)C2)ccc1F [Example 75, 4-fluoro-N-[4-fluoro-5-(2-morpholin-4-ylpyrimidin-5-yl)-2-[(3R,5S)-3,4,5-trimethylpiperazin-1-yl]phenyl]-3-methoxybenzamide]"
2,29,"C[C@@H]1CN(c2cc(F)c(-c3cnc(N4CCOCC4)nc3)cc2NC(=O)c2cc(F)cc(Cl)c2)C[C@H](C)N1C [Example 159, 3-chloro-5-fluoro-N-[4-fluoro-5-(2-morpholin-4-ylpyrimidin-5-yl)-2-[(3R,5S)-3,4,5-trimethylpiperazin-1-yl]phenyl]benzamide]"
3,4.21,"C[C@@H]1CN(c2cc(F)c(-c3cnc(N4CCOCC4)nc3)cc2NC(=O)c2cc(O)cc(F)c2F)C[C@H](C)N1C [Example 291, 2,3-difluoro-N-[4-fluoro-5-(2-morpholin-4-ylpyrimidin-5-yl)-2-[(3R,5S)-3,4,5-trimethylpiperazin-1-yl]phenyl]-5-hydroxybenzamide]"
4,0.634,"CC1CN(c2ncc(-c3cc(NC(=O)c4c[nH]c(=O)cc4C(F)(F)F)c(N4C[C@@H](C)N(C)[C@@H](C)C4)cc3F)cn2)CCO1 (stereo in doubt) [Example 390, N-[4-fluoro-5-[2-[(2R)-2-methylmorpholin-4-yl]pyrimidin-5-yl]-2-[(3S,5R)-3,4,5-trimethylpiperazin-1-yl]phenyl]-6-oxo-4-(trifluoromethyl)-1H-pyridine-3-carboxamide]"
5,4.65,"Cc1cc(-c2cc(NC(=O)c3c[nH]c(=O)cc3C(F)(F)F)c(N3C[C@@H](C)N(C)[C@@H](C)C3)cc2F)cnn1 [Example 149, N-[4-fluoro-5-(6-methylpyridazin-4-yl)-2-[(3R,5S)-3,4,5-trimethylpiperazin-1-yl]phenyl]-6-oxo-4-(trifluoromethyl)-1H-pyridine-3-carboxamide]"
6,10.3,"C[C@@H]1CN(c2cc(F)c(-c3cnc4c(c3)CCN4)cc2NC(=O)c2c[nH]c(=O)cc2C(F)(F)F)C[C@H](C)N1C [Example 172, N-[5-(2,3-dihydro-1H-pyrrolo[2,3-b]pyridin-5-yl)-4-fluoro-2-[(3R,5S)-3,4,5-trimethylpiperazin-1-yl]phenyl]-6-oxo-4-(trifluoromethyl)-1H-pyridine-3-carboxamide]"
7,113,"Cc1nc(C(=O)Nc2cc(-c3cnc(N4CCOCC4)nc3)c(F)cc2N2CCN(C)C(C)C2)cs1 (stereo in doubt) [Example 194, N-[4-fluoro-5-(2-morpholin-4-ylpyrimidin-5-yl)-2-[(3R)-3,4-dimethylpiperazin-1-yl]phenyl]-2-methyl-1,3-thiazole-4-carboxamide]"
8,209,"C[C@@H]1CN(c2cc(F)c(-c3cnc(N4CCOCC4)nc3)cc2NC(=O)c2cncnc2C(F)(F)F)C[C@H](C)N1C [Example 187, N-[4-fluoro-5-(2-morpholin-4-ylpyrimidin-5-yl)-2-[(3R,5S)-3,4,5-trimethylpiperazin-1-yl]phenyl]-4-(trifluoromethyl)pyrimidine-5-carboxamide]"

# Same assay, conditions: surface plasmon resonance (SPR); read-out: WDR5 binding affinity (KD)
row,Structure (SMILES),Kd [nM]
1,"C[C@@H]1CN(c2cc(F)c(-c3cc(F)c(C(=O)NCC4CC4)c(F)c3)cc2NC(=O)c2c[nH]c(=O)cc2C(F)(F)F)C[C@H](C)N1C [Example 712, N-[5-[4-(cyclopropylmethylcarbamoyl)-3,5-difluorophenyl]-4-fluoro-2-[(3R,5S)-3,4,5-trimethylpiperazin-1-yl]phenyl]-6-oxo-4-(trifluoromethyl)-1H-pyridine-3-carboxamide]",2.23
2,"C[C@@H]1CN(c2cc(F)c(-c3ccnc(S(C)(=O)=O)n3)cc2NC(=O)c2c[nH]c(=O)cc2C(F)(F)F)C[C@H](C)N1C [Example 399, N-[4-fluoro-5-(2-methylsulfonylpyrimidin-4-yl)-2-[(3R,5S)-3,4,5-trimethylpiperazin-1-yl]phenyl]-6-oxo-4-(trifluoromethyl)-1H-pyridine-3-carboxamide]",4.58
3,"CC(C)OC(=O)N1CCC=C(c2cc(NC(=O)c3c[nH]c(=O)cc3C(F)(F)F)c(N3C[C@@H](C)N(C)[C@@H](C)C3)cc2F)CC1 [Example 674, Propan-2-yl 4-[2-fluoro-5-[[6-oxo-4-(trifluoromethyl)-1H-pyridine-3-carbonyl]amino]-4-[(3R,5S)-3,4,5-trimethylpiperazin-1-yl]phenyl]-2,3,6,7-tetrahydroazepine-1-carboxylate]",4.94
4,"C[C@@H]1CN(c2cc(F)c(-c3ccc(C(N)=O)c(F)c3)cc2NC(=O)c2c[nH]c(=O)cc2C(F)F)C[C@H](C)N1C [Example 553, N-[5-(4-carbamoyl-3-fluorophenyl)-4-fluoro-2-[(3R,5S)-3,4,5-trimethylpiperazin-1-yl]phenyl]-4-(difluoromethyl)-6-oxo-1H-pyridine-3-carboxamide]",1

# Other lines, results leading:
row,Kd [nM],Structure (SMILES)
1,5.44,"C[C@@H]1CN(c2cc(F)c(-c3cc(F)c(C(N)=O)c(F)c3)cc2NC(=O)c2ccc(F)cc2C(F)(F)F)C[C@H](C)N1C [Example 656, 2,6-difluoro-4-[2-fluoro-5-[[4-fluoro-2-(trifluoromethyl)benzoyl]amino]-4-[(3R,5S)-3,4,5-trimethylpiperazin-1-yl]phenyl]benzamide]"
2,0.617,"C[C@@H]1CN(c2cc(F)c(-c3ccc(N4CCO[C@@H](C)C4)nc3)cc2NC(=O)c2c[nH]c(=O)cc2C(F)(F)F)C[C@H](C)N1C (racemic) [Example 434, N-[4-fluoro-5-[6-[(2R)-2-methylmorpholin-4-yl]pyridin-3-yl]-2-[(3S,5R)-3,4,5-trimethylpiperazin-1-yl]phenyl]-6-oxo-4-(trifluoromethyl)-1H-pyridine-3-carboxamide]"
3,1.02,"C[C@@H]1CN(c2ncc(-c3cc(NC(=O)c4cn(C)c(=O)cc4C(F)(F)F)c(N4CCN(C)[C@H](C)C4)cc3F)cn2)CCO1 (stereo in doubt) [Example 450, N-[4-fluoro-2-[(3R)-3,4-dimethylpiperazin-1-yl]-5-[2-[(2R)-2-methylmorpholin-4-yl]pyrimidin-5-yl]phenyl]-1-methyl-6-oxo-4-(trifluoromethyl)pyridine-3-carboxamide]"
4,3.59,"C[C@@H]1CN(c2cc(F)c(-c3ccc(CN4CCOCC4)s3)cc2NC(=O)c2c[nH]c(=O)cc2C(F)(F)F)C[C@H](C)N1C [Example 491, N-[4-fluoro-5-[5-(morpholin-4-ylmethyl)thiophen-2-yl]-2-[(3R,5S)-3,4,5-trimethylpiperazin-1-yl]phenyl]-6-oxo-4-(trifluoromethyl)-1H-pyridine-3-carboxamide]"
5,0.231,"C[C@@H]1CN(c2cc(F)c(C3=CCN(c4ncc(CN5CCN(C)CC5)cn4)CC3)cc2NC(=O)c2c[nH]c(=O)cc2C(F)(F)F)C[C@H](C)N1C [Example 407, N-[4-fluoro-5-[1-[5-[(4-methylpiperazin-1-yl)methyl]pyrimidin-2-yl]-3,6-dihydro-2H-pyridin-4-yl]-2-[(3R,5S)-3,4,5-trimethylpiperazin-1-yl]phenyl]-6-oxo-4-(trifluoromethyl)-1H-pyridine-3-carboxamide]"
